Results on 30 molecules are retold here after patent US20130261165A1, “PREVENTION AND TREATMENT OF DISEASES CHARACTERIZED BY MESENCEPHALIC DOPAMINERGIC NEURON CELL DEATH” (THE MCLEAN HOSPITAL CORPORATION, priority 2010, published 2013).

For series [1], the system named is En-1. In words: En-1 mRNA expression by qPCR in primary ventral midbrain cultures. Conditions: for fold induction at 10 µM: Mus musculus, 24 h, read-out: Fold Increase in En-1 Expression.
Method: (§5) One library consisting of FDA-approved and non-FDA approved drugs (NINDS) was screened for drugs with an ability to up-regulate En-1 and/or FoxA2 expression in neuronal cells. Candidate compounds were screened in a gene expression assay using a qPCR detection methodology in a primary ventral midbrain preparation of E12 mice.
(§6) To determine the extent of upregulation in the compounds of interest after initial screening, primary cultures of ventral midbrain cells of E12 CD1 mice were prepared. The embryonic ventral midbrains were removed and stored in HBSS on ice. The dissection time was less than 30-60 minutes. The ventral midbrain tissue was dissociated by removal of the HBSS and addition of 1 ml of 0.05% trypsin-EDTA for 10 minutes at 37° C. During incubation, the tissue and the trypsin-EDTA solution was mixed by occasional careful swirling of the tube. The reaction was stopped, the trypsin aspirated, and 1 ml of 50% HBSS/FBS was added. […] Candidate compound treatment was stopped by cell lysis. The mRNA was isolated and cDNA was synthesized using the Qiagen Turbocapture™ kit (Qiagen Inc., Valencia, Calif.) using Superscript III® reverse transcriptase (Life Technologies, Carlsbad, Calif.) according to manufacturer's protocol. En-1 and FOXA2 mRNA in the cultured cells was quantified using qPCR. […] Assay fluorescence was determined using a Step-One Plus fluorescence plate reader in 96-well plates at a standard reaction time for ramp speed.
(§7) The fold change in mRNA expression level was calculated according to the following formulas:
Fold change=2^−ΔΔCt wherein [1]
(§8) ΔΔCt=(Cttarget gene−Ct18S)treated−(Cttarget gene−Ct18S)untreated.
(§9) In formula 2, Cttarget gene refers to the Ct value determined for either En-1 or FOXA2 (as appropriate) and Ct18S refers to the Ct value determined for the mRNA encoding the 18S ribosomal subunit, each measured by qPCR.
The subject of series [2] is FoxA2. In words: FoxA2 mRNA expression by qPCR in primary ventral midbrain cultures. The following applies: for fold induction at 10 µM: Mus musculus, 24 h, read-out: Fold Increase in FoxA2 Expression.
Method: as §5, §6, §7
Fold change=2^−ΔΔCt wherein [1]
as §8, §9
The conditions of series [3]: cited from earlier work.
Series [4] concerns En-1. Conditions: adult male C57 mice, 20 mg/kg/day subcutaneous for 12 days, n=8, qPCR vs GAPDH and β-actin, listed as duloxetine HCl, hydrochloride. On the procedure: (§1) Adult mice were treated with duloxetine HCl (20 mg/kg/day) by subcutaneous injection for 12 days (n=8). […] Data were obtained by qPCR analysis using GAPDH and β-actin as housekeeping genes followed by ΔΔCt calculation.
(§2) Duloxetine HCl (20 mg/kg/day) or saline vehicle was administrated subcutaneously into adult male C57 mice over a period of 12 days. […] Substantia nigra pars compacta was fresh dissected and snap frozen in RNA preserving solution in liquid nitrogen. […] Changes in mRNA expression due to duloxetine HCl treatment were determined by quantitative PCR using a Step One Plus Instrument and TaqMan® reagents (Applied Biosystems). […] Beta actin and GAPD were used as housekeeping genes and fold regulation was calculated using the delta Ct method.
(§3) ΔΔCt=(Cttarget gene−Cthousekeeping gene)treated−(Cttarget gene−Cthousekeeping gene)untreated
(§4) Untreated refers to combined cDNA from the saline treated animals. cDNA from each saline treated animal was also run against the pooled control cDNA.

The subject of series [5] is FoxA2. The following applies: adult male C57 mice, 20 mg/kg/day subcutaneous for 12 days, n=8, qPCR vs GAPDH and β-actin, listed as duloxetine HCl, hydrochloride. On the procedure: as §1, §2, §3, §4
Series [6] deals with FoxA2 positive dopaminergic neurons. The following applies: 10 μM pre-treatment 24 hours prior to 6-OHDA (1-50 μM); control = cells not exposed to toxin.
Method: The embryonic ventral midbrains were removed and stored in HBSS on ice. The dissection time was less than 30-60 minutes. The ventral midbrain tissue was dissociated by removal of the HBSS and the addition of 1 ml of 0.05% trypsin-EDTA for 10 minutes at 37° C. During incubation, the tissue and the trypsin-EDTA solution was mixed by occasional careful swirling of the tube. The reaction was stopped, the trypsin aspirated, and 1 ml of 50% HBSS/FBS was added. […] The tissue was triturated using an autoclaved glass pasteur pipette with narrowed opening and a stripettor. The cell suspension was centrifuged at 1000 rpm for 5 min, the supernatant aspirated, and the cells resuspended in E12 media. Twenty-five thousand cells per well were plated in 96 well PLO/laminin coated black-wall imaging plates (Costar) and incubated for 6 days without candidate compound treatment. […] 6-hydroxydopamine hydrobromide (6-OHDA) (Sigma) was reconstituted in ascorbic acid and PBS and added at concentrations of 1-50 μM to the cultures. […] Cultures were stained for tyrosine hydroxylase, FoxA2 and Hoechst and visualized using alexa fluor secondary antibodies. Cultures were analyzed by high content analysis (using an InCell 2000 instrument). The percentage of FoxA2 positive dopaminergic neurons were documented.
Setting [7] is: primary ventral midbrain cells of E12 CD1 mice, 10 μM for 24 hours, qPCR vs 18S.

Values joined by “and” are separate entries in the source; they are usually repeats but may differ in a detail not shown here. Equal entries are not always repeated. Structures can show the parent of a compound that is named as a salt.

As for `O=C1CC[C@@]2(O)[C@H]3Cc4ccc(O)c5c4[C@@]2(CCN3CC2CC2)[C@H]1O5` [Naltrexone hydrochloride], the fold induction at 10 µM in the series on En-1 [1] came out at 2.09; with FoxA2 [2], 3.39.
For the molecule `COc1ccccc1OCC(O)COC(N)=O` (stereo not drawn) [Methocarbamol], the fold induction at 10 µM in the series on En-1 [1] was found to be 1.83; with FoxA2 [2], 2.3.
Turning to `CCOC(=O)[C@H](CCc1ccccc1)N[C@@H](C)C(=O)N1[C@H](C(=O)O)C[C@H]2CCCC[C@@H]21` [Trandolapril], the fold induction at 10 µM with En-1 [1] turned out to be 17.9.
In the case of `CC1(C)O[C@@H]2C[C@H]3[C@@H]4C[C@H](F)C5=CC(=O)CC[C@]5(C)[C@H]4[C@@H](O)C[C@]3(C)[C@]2(C(=O)CO)O1` [Flurandrenolide], the fold induction at 10 µM in the series on En-1 [1] turned out to be 1.5; in the series with FoxA2 [2], 1.9.
Take `Cc1cc(=O)[nH]c(=S)[nH]1` [Methylthiouracil]: in the series on FoxA2 [2], the fold induction at 10 µM stood at 2.34.
For `CCN1CCCC1CNC(=O)c1cc(S(N)(=O)=O)ccc1OC` (stereo not drawn) [Sulpiride], the fold induction at 10 µM came out at 1.4 in the series on En-1 [1] and 1.7 in the series on FoxA2 [2].
The like results for `CC(=O)O[C@]1(C(C)=O)CC[C@H]2[C@@H]3C=C(C)C4=CC(=O)CC[C@]4(C)[C@H]3CC[C@@]21C` [Megestrol acetate] were, in that order, 2.14 and 1.89.
The like results for `Cc1ccccc1C(OCCN(C)C)c1ccccc1` (stereo not drawn) [Orphenadrine citrate] were, in that order, 1.69 and 1.82.
In the same order, the values of `Cn1cc[nH]c1=S` [Methimazole] are 0.2 and 1.97.
As to `c1ccc(CC2=NCCN2)cc1` [Tolazoline hydrochloride], the fold induction at 10 µM in the series on En-1 [1] was 2.51; in the series with FoxA2 [2], 2.67.
The like results for `O=C(O)c1ccccc1Nc1cccc(C(F)(F)F)c1` [Flufenamic acid] were, in that order, 2.6 and 3.4.
In the same order, the values of `c1ccc2c(c1)CCCC2C1=NCCN1` (stereo not drawn) [Tetrahydrozoline hydrochloride] are 1.06 and 2.06.
As to `CC(N)C12CC3CC(CC(C3)C1)C2` (stereo not drawn) [Rimantadine hydrochloride], the fold induction at 10 µM in the series with En-1 [1] stood at 1.3; in the series with FoxA2 [2], 2.7.
For `CC(C)NCC(O)COc1cccc2[nH]ccc12` (stereo not drawn) [Pindolol], the figures for the fold induction at 10 µM in the series on En-1 [1] and in the series with FoxA2 [2] were 9.8 and 44.1, respectively.
As to `CO[C@@]1(NC(=O)C(C(=O)O)c2ccc(O)cc2)C(=O)N2C(C(=O)O)=C(CSc3nnnn3C)CO[C@@H]21` (stereo partly drawn) [Moxalactam disodium], the fold induction at 10 µM in the series on En-1 [1] came to 4.34; with FoxA2 [2], 7.31.
On to `C#CCN(C)Cc1ccccc1` [Pargyline hydrochloride], for which the fold induction at 10 µM was determined as 1.73 in the series on En-1 [1] and 1.27 in the series with FoxA2 [2].
The like results for `c1ccc2c(CC3=NCCN3)cccc2c1` [Naphazoline hydrochloride] were, in that order, 8.95 and 1.99.
The like results for `CCCc1cc(=O)[nH]c(=S)[nH]1` [Propylthiouracil] were, in that order, 1.3 and 1.68.
`CC(=O)c1ccc(S(=O)(=O)NC(=O)NC2CCCCC2)cc1` [Acetohexamide]: the results for the fold induction at 10 µM with En-1 [1] and in the series on FoxA2 [2] were 2.3 and 3, respectively.
With `NNCCc1ccccc1` [Phenelzine sulfate], the fold induction at 10 µM with FoxA2 [2] was 2.5.
On to `COc1ccc2c(c1OC)C(=O)O[C@@H]2[C@H]1c2c(cc3c(c2OC)OCO3)CCN1C` [Noscapine hydrochloride], for which the fold induction at 10 µM came out at 1.83 with En-1 [1] and 1.45 with FoxA2 [2].
Consider `NC(=O)c1cc([N+](=O)[O-])cc([N+](=O)[O-])c1` [Nitromide], for which the “Fold Increase in En-1 Expression” value in the series on En-1 [1] (setting [7]) came out at 0.28 Fold. Further, the “Fold Increase in FoxA2 Expression” value in the series with FoxA2 [2] (setting [7]) came out at 1.55 Fold.
In the case of `CNCC[C@H](Oc1cccc2ccccc12)c1cccs1` [Duloxetine], in series [3] (pH 1.0, within one hour), the “dosage hydrolyzed to 1-naphthol” value was 50%. In addition, the “dosage degraded to 1-naphthol” value in series [3] (pH 2.0, in one hour) is 10%. Besides, in series [3] (pH 4.0), the “time for 10% degradation” value is recorded as “up to 63 hours”.
For the molecule `CNCC[C@H](Oc1cccc2ccccc12)c1cccs1` [Duloxetine hydrochloride], in the series with En-1 [4], the “En-1 mRNA expression in substantia nigra, fold increase” value is 1.98 fold and 1.98±0.098 fold. The “FoxA2 mRNA expression in substantia nigra, fold increase” value with FoxA2 [5] is 2.19 fold and 2.19±0.23 fold. Also, the “DA neuron survival as a percentage of control” value in series [6] amounted to 107%. The fold induction at 10 µM in the series on En-1 [1] is 19; in the series with FoxA2 [2], 49.5.
Regarding `CC(CCc1ccccc1)NC(C)C(O)c1ccc(O)cc1` (stereo not drawn) [Nylidrin hydrochloride], in the series with FoxA2 [2], the fold induction at 10 µM was found to be 1.7.
In the case of `CCCCNC(=O)NS(=O)(=O)c1ccc(C)cc1` [Tolbutamide], the fold induction at 10 µM in the series with En-1 [1] was 21.6; in the series with FoxA2 [2], 35.
In the same order, the values of `CCC1(c2ccccc2)C(=O)NCNC1=O` [Primidone] are 0.86 and 1.43.
In the same order, the values of `C[C@H]1C[C@@H]2[C@H]([C@@H](O)C[C@@]3(C)[C@H]2CC[C@]3(O)C(=O)CO)[C@@]2(C)C=CC(=O)C=C12` [Methylprednisolone] are 1.38 and 1.41.
In the same order, the values of `C[N+]1(C)[C@@H]2C[C@@H](OC(=O)[C@H](CO)c3ccccc3)C[C@H]1[C@@H]1O[C@@H]12` [Methscopolamine bromide] are 1.9 and 1.9.
`CC(=O)S[C@@H]1CC2=CC(=O)CC[C@]2(C)[C@H]2CC[C@@]3(C)[C@@H](CC[C@@]34CCC(=O)O4)[C@H]12` [Spironolactone]: the fold induction at 10 µM is 1.34 in the series with En-1 [1] and 1.74 with FoxA2 [2].
